This is an account of results in US8778935B2 (Centro Nacional de Investigaciones Oncologicas (CNIO), priority 2009, dated 2014).

By IC50 is commonly meant the concentration that gives 50% inhibition.

In the first experiment the target is T1, PI3K (p110α/p85α) (Homo sapiens, UniProt P42336).
T1 construct: purchased Carna Biosciences 07CBS-0402A
T1 sequence (P42336 whole entry): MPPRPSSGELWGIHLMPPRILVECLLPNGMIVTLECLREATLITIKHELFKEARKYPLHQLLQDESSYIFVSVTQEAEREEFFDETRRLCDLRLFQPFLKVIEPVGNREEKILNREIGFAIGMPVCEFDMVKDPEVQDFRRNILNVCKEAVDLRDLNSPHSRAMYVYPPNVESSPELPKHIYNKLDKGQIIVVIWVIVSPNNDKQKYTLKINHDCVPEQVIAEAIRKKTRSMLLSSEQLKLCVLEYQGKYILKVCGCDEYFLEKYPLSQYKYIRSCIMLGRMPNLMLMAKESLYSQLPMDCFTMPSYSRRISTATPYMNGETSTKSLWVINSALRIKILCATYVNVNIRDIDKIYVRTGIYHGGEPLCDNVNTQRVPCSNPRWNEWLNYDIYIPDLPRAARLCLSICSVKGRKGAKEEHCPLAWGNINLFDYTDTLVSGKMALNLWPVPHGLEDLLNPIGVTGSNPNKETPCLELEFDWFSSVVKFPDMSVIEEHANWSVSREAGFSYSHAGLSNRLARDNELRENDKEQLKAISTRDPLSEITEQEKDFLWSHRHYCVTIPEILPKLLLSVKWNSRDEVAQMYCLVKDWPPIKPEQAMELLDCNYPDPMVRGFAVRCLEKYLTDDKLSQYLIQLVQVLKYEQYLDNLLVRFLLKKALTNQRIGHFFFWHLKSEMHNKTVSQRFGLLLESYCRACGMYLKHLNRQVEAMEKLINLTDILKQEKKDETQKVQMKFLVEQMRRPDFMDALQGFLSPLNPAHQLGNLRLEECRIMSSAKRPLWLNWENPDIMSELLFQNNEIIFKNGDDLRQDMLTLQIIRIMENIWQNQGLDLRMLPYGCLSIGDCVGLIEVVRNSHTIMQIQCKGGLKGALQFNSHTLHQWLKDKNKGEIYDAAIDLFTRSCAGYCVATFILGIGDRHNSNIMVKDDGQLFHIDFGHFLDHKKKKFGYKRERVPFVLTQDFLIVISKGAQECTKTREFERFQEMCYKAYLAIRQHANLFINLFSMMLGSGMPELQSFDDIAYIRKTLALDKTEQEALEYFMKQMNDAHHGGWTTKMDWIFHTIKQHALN
T1 sequence (P27986 whole entry partner): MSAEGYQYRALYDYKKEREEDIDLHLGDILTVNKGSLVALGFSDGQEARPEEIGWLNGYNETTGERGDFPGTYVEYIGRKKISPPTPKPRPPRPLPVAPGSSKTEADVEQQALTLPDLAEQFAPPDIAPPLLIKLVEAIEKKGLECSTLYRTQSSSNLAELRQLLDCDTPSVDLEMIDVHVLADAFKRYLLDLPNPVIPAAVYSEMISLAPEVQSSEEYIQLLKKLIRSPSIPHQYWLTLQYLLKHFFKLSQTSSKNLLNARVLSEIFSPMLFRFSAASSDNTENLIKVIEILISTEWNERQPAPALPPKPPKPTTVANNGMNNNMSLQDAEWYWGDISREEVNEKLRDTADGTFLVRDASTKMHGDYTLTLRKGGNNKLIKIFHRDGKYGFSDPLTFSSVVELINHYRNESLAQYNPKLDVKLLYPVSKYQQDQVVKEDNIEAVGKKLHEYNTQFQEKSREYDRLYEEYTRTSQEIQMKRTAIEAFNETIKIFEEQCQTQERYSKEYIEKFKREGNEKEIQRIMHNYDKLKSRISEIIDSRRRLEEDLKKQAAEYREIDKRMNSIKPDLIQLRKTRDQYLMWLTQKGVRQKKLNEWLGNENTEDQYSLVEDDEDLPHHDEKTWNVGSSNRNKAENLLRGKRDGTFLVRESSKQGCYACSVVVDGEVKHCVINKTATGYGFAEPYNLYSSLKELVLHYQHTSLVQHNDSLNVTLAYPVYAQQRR
In words: PI3K Activity Assay (ADP Hunter Plus). Format: biochemical. The note with it: PI3Kα activity, quantitative results; read-out: PI3Kα IC50. The procedure:
The kinase activity was measured by using the commercial ADP Hunter™ Plus assay available from DiscoveRx (#33-016), which is a homogeneous assay to measure the accumulation of ADP, a universal product of kinase activity. […] Reaction was carried out for 1 hour at 25° C. Reagent A and B were sequentially added to the wells and plates were incubated for 30 min at 37° C. […] Values were normalized against the control activity included for each enzyme (i.e., 100% PI3 kinase activity, without compound). These values were plot against the inhibitor concentration and were fit to a sigmoid dose-response curve by using the Graphad software.
With `CC(C)(c1cn2cc(-c3cnc(N)nc3)nc(N3CCOCC3)c2n1)N1CCN(S(C)(=O)=O)CC1` [2-242], the IC50 was determined as 16 nM.

`Cc1cn2cc(-c3cnc(N)nc3)nc(N3CCOCC3)c2n1` [2-181]: the IC50 turned out to be 110 nM.

Turning to `CS(=O)(=O)N1CCN(Cc2cn3cc(-c4ccc(C#N)nc4)nc(N4CCOCC4)c3n2)CC1` [2-201], the half-maximal inhibitory concentration (IC50) was found to be 3300 nM.

`COC(=O)C1COCCN1c1nc(-c2cnc(N)nc2)cn2cc(C)nc12` (stereo not drawn) [2-227]: the half-inhibitory concentration (IC50) was 6090 nM.

Still in this experiment, the particulars now being: quantitative results of Table 4; read-out: PI3Kα IC50.
In the case of `O=C(c1cn2cc(-c3cccc4[nH]ncc34)nc(N3CCOCC3)c2n1)N1CCCC1` [2-87], the concentration for half-maximal inhibition (IC50) came out at 355 nM.

Turning to `CN(C)CCNC(=O)c1cn2cc(-c3cccnc3)nc(N3CCOCC3)c2n1` [2-147], the 50% inhibitory concentration (IC50) came to 832 nM.

Consider `CS(=O)(=O)N1CCC2(CCN(Cc3cn4cc(-c5cccc6[nH]ncc56)nc(N5CCOCC5)c4n3)CC2)CC1` [2-149], for which the IC50 was 1300 nM.

Consider `CS(=O)(=O)N1CCN(Cc2cn3cc(-c4c(F)ccc5[nH]cc(Cl)c45)nc(N4CCOCC4)c3n2)CC1` [2-122], for which the 50% inhibitory concentration (IC50) is 50000 nM.

`COc1ccc(-c2nc(N3CCOCC3)c3nc(CN4CCN(S(C)(=O)=O)CC4)cn3c2Cl)cn1` [2-109]: the IC50 is 1000 nM.

On to `NC(=O)c1cn2cc(-c3c(F)ccc4[nH]ccc34)nc(N3CCOCC3)c2n1` [2-95], for which the IC50 was 891 nM.

Turning to `COC(=O)Cc1cn2cc(-c3cccc4[nH]ncc34)nc(N3CCOCC3)c2n1` [2-107], the IC50 worked out at 2600 nM.

Take `c1cc(-c2cn3cc(CN4CCC5(CCNCC5)C4)nc3c(N3CCOCC3)n2)c2cn[nH]c2c1` [2-118]: the concentration for half-maximal inhibition (IC50) came to 1500 nM.

With `Cc1ccncc1-c1cn2cc(CN3CCN(S(C)(=O)=O)CC3)nc2c(N2CCOCC2)n1` [2-152], the 50% inhibitory concentration (IC50) turned out to be 468 nM.

Staying with this experiment, now noted: quantitative results; read-out: PI3Kα IC50.
With `COc1cncc(-c2cn3cc(C)nc3c(N3CCOCC3)n2)c1` [2-27, 6-(5-methoxypyridin-3-yl)-2-methyl-8-morpholinoimidazo[1,2-a]pyrazine], the half-maximal inhibitory concentration (IC50) was 3900 nM.

For `Cc1cn2c(Br)c(-c3cccc4[nH]ncc34)nc(N3CCOCC3)c2n1` [2-55, 5-bromo-6-(1H-indazol-4-yl)-2-methyl-8-morpholinoimidazo[1,2-a]pyrazine], the IC50 is 12000 nM.

Regarding `Cc1cn2c(Cl)c(-c3cccc4[nH]ncc34)nc(N3CCOCC3)c2n1` [2-54, 5-chloro-6-(1H-indazol-4-yl)-2-methyl-8-morpholinoimidazo[1,2-a]pyrazine], the IC50 is 266 nM.

For the compound `CCOC(=O)c1cn2cc(-c3cccc4[nH]ncc34)nc(N3CCOCC3)c2n1` [2-52, ethyl 6-(1H-indazol-4-yl)-8-morpholinoimidazo[1,2-a]pyrazine-2-carboxylate], the half-inhibitory concentration (IC50) is 676 nM.

On to `CS(=O)(=O)N1CCN(Cc2cn3cc(-c4cnc(N)c(C(F)(F)F)c4)nc(N4CCOCC4)c3n2)CC1` [2-83], for which the IC50 amounted to 210 nM.

For the compound `O=Cc1cn2cc(-c3cccc(O)c3)nc(N3CCOCC3)c2n1` [2-03, 6-(3-hydroxyphenyl)-8-morpholinoimidazo[1,2-a]pyrazine-2-carbaldehyde], the IC50 was found to be 10000 nM.

Regarding `Oc1cccc(-c2cn3cc(CN4CCOCC4)nc3c(N3CCOCC3)n2)c1` [2-09, 3-(8-morpholino-2-(morpholinomethyl)imidazo[1,2-a]pyrazin-6-yl)phenol], the 50% inhibitory concentration (IC50) is 444 nM.

In the case of `Oc1cccc(-c2cn3cc(C4CC4)nc3c(N3CCOCC3)n2)c1` [2-14, 3-(2-cyclopropyl-8-morpholinoimidazo[1,2-a]pyrazin-6-yl)phenol], the IC50 is 340 nM.

The experiment is the same for the next values; noted with them: semi-quantitative results; read-out: PI3Kα IC50 (semi-quantitative class).
`COc1cncc(-c2cn3cc(C)nc3c(N3CCOCC3)n2)c1` [2-27, 6-(5-methoxypyridin-3-yl)-2-methyl-8-morpholinoimidazo[1,2-a]pyrazine]: the IC50 is over 1000 nM.

On to `Cc1cn2c(Cl)c(-c3cccc4[nH]ncc34)nc(N3CCOCC3)c2n1` [2-54, 5-chloro-6-(1H-indazol-4-yl)-2-methyl-8-morpholinoimidazo[1,2-a]pyrazine], for which the IC50 was 100 to 1000 nM.

Take `CN1CCN(c2cnc3c(N4CCOCC4)nc(-c4cccc(O)c4)cn23)CC1` [2-37, 3-(3-(4-methylpiperazin-1-yl)-8-morpholinoimidazo[1,2-a]pyrazin-6-yl)phenol]: the half-inhibitory concentration (IC50) lay in the range of 100 to 1000 nM.

On to `CS(=O)(=O)N1CCN(c2cnc3c(N4CCOCC4)nc(-c4cccc5[nH]ncc45)cn23)CC1` [2-41, 6-(1H-indazol-4-yl)-3-(4-sulfonylmethylpiperazin-1-yl)-8-morpholinoimidazo[1,2-a]pyrazine], for which the concentration for half-maximal inhibition (IC50) is 100 to 1000 nM.

`Oc1cccc(-c2cn3cc(CN4CCOCC4)nc3c(N3CCOCC3)n2)c1` [2-09, 3-(8-morpholino-2-(morpholinomethyl)imidazo[1,2-a]pyrazin-6-yl)phenol]: the IC50 fell in the range of 100 to 1000 nM.

On to `Oc1cccc(-c2cn3cc(C4CC4)nc3c(N3CCOCC3)n2)c1` [2-14, 3-(2-cyclopropyl-8-morpholinoimidazo[1,2-a]pyrazin-6-yl)phenol], for which the half-inhibitory concentration (IC50) fell in the range of 100 to 1000 nM.
